{
  "source": "patent US8318105B2",
  "about": "“Systems and methods for biomarker analysis” (priority 2010, dated 2012)",
  "molecules": {"B1": {"name": "Soybeans: primary soybean protease inhibitor, 20.7-22.3 kDa (protein, UniProt P01070 25-205, looked up)", "Trypsin inhibitor A": "DFVLDNEGNPLENGGTYYILSDITAFGGIRAAPTGNERCPLTVVQSRNELDKGIGTIISSPYRIRFIAEGHPLSLKFDSFAVIMLCVGIPTEWSVVEDLPEGPAVKIGENKDAMDGWFRLERVSDDEFNNYKLVFCPQQAEDDKCGDIGISIDHDDGTRRLVVSKNKPLVVQFQKLDKESL"}},
  "key": {"[1]": {"target": "T1, α-amylase (Homo sapiens, UniProt P0DUB6)", "T1 sequence (P0DUB6 16-511)": "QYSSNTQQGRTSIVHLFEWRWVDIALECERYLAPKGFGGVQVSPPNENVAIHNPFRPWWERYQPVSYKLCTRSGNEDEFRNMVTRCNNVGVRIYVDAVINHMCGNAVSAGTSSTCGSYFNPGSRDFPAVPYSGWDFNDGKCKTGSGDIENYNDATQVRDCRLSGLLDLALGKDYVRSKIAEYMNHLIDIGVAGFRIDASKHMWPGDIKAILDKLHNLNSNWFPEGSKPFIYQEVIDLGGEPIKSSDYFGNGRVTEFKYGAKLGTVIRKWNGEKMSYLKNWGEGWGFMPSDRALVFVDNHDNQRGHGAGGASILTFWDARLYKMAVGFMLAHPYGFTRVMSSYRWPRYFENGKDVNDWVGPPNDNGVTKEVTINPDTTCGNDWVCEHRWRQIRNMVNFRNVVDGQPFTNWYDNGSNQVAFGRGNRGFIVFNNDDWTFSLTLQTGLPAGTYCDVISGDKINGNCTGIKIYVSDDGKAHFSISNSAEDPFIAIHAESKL", "experiment": "α-Amylase inhibition saliva screening (chromogenic substrate, absorbance 405 nm)", "assay_type": "biochemical", "settings": "test compound prepared at 5,000 ppm, 37° C.; for absorbance at 405 nm, single readings: four replicate readings", "source_text": "Further details of these five compounds may also be seen in Table 4."}, "[2]": {"test_system": "peroxidase", "experiment": "Peroxidase assay in saliva (Amplex Red)", "assay_type": "biochemical", "settings": "compound prepared at 500 ppm, 30 minutes, FIGS. 26-29", "procedure": "To determine the effect of various GRAS compounds as inhibitors of peroxidase activity, a standard assay using Amplex® Red (Life Technologies), which releases a fluorescent oxidation product.\nThe test compounds, such as GRAS materials or cocktails of same, were prepared at a concentration of 500 ppm in distilled water. For the assay, 50 μl samples of test compounds were mixed with 20-30 μl of saliva (either “pooled” or “unpooled”) prior to the addition of Amplex® Red. […] Reactions were allowed to run for 30 minutes during these assays."}, "[3]": {"test_system": "protease", "settings": "natural protease inhibitors from food; cited from earlier work"}},
  "note": "Values joined by “and” are separate entries in the source; they are usually repeats but may differ in a detail not shown here. Equal entries are not always repeated.",
  "data": [
    {"molecule": "Aluminum potassium sulfate dodecahydrate [CDI-42]", "values": [
      {"measurement": "Ave (absorbance at 405 nm)", "setting": "[1]; 0 min", "result": 0.92},
      {"measurement": "absorbance at 405 nm, single readings", "setting": "[1]; 0 min", "result": "0.80 and 1.13 and 0.90 and 0.84"},
      {"measurement": "absorbance at 405 nm, single readings", "setting": "[1]; 5 min", "result": "1.65 and 2.15 and 1.80 and 1.81"},
      {"measurement": "absorbance at 405 nm, single readings", "setting": "[1]; 15 min", "result": "2.37 and 2.38 and 2.25 and 2.17"},
      {"measurement": "peroxidase inhibition", "setting": "[2]", "result": "significant peroxidase inhibition capabilities"}
    ]},
    {"molecule": "Aluminum sulfate hydrate [CDI-34]", "values": [
      {"measurement": "Ave (absorbance at 405 nm)", "setting": "[1]; 0 min", "result": 0.40},
      {"measurement": "absorbance at 405 nm, single readings", "setting": "[1]; 0 min, sulfate hydrate", "result": "0.40 (2×) and 0.36 and 0.45"},
      {"measurement": "Ave (absorbance at 405 nm)", "setting": "[1]; 5 min", "result": 0.50},
      {"measurement": "absorbance at 405 nm, single readings", "setting": "[1]; 5 min, sulfate hydrate", "result": "0.49 and 0.50 (2×) and 0.52"},
      {"measurement": "Ave (absorbance at 405 nm)", "setting": "[1]; 15 min", "result": 0.56},
      {"measurement": "absorbance at 405 nm, single readings", "setting": "[1]; 15 min, sulfate hydrate", "result": "0.53 and 0.61 and 0.54 and 0.56"}
    ]},
    {"molecule": "Cn1c(=O)c2c(ncn2C)n(C)c1=O", "note": "[CDI #33, Caffeine]", "values": [
      {"measurement": "peroxidase inhibition", "setting": "[2]", "result": "significant peroxidase inhibition capabilities"}
    ]},
    {"molecule": "COc1ccc(O)c(C(C)(C)C)c1", "note": "[CDI-039, 3-tert--butyl-hydroxyanisole]", "values": [
      {"measurement": "peroxidase inhibition", "setting": "[2]", "result": "significant peroxidase inhibition capabilities"}
    ]},
    {"molecule": "B1", "values": [
      {"measurement": "Inhibitory power", "setting": "[3]", "result": 1.2, "unit": "times times weight"}
    ]}
  ]
}
